Test results from PubChem BioAssay AID2060905 (Molecular Pharmacology Branch, DTP, NCI, 2025).

Tested on: 282377-053-R-J1-PDC complex spheroid viability
Test: Anticancer human tumor 282377-053-R-J1-PDC patient-derived colon adenocarcinoma cell line growth inhibition [RAS]
Conditions: for IC50: curve of first compound; for viability, T/C: stronger effect = lower value; active = viability on the fitted dose curve at most 10% of control; inactive = the rest
Method in brief: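 Tumour cells grown as complex spheroids with HUVEC endothelial cells and mesenchymal stem cells, treated with RAS pathway inhibitor combinations. Each agent spans half-log steps from near clinical Cmax, or 10 microM where Cmax is unknown.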
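Note: spheroids exposed to agents for seven days before readout.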
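Throughout, for viability, T/C: luminescence viability as percent of DMSO vehicle control wells.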

CCc1c2c(nc3ccc(O)cc13)-c1cc3c(c(=O)n1C2)COC(=O)[C@]3(O)CC + C=CC(=O)N1CCN(c2nc(OCC3CCCN3C)nc3c(F)c(-c4nc(N)cc(C)c4C(F)(F)F)c(Cl)cc23)C(C)C1
inactive: viability, T/C (second compound 0.00316 µM, first compound 0.000949 µM) 117% | viability, T/C (second compound 0.00316 µM, first compound 0.003 µM) 122% | viability, T/C (second compound 0.00316 µM, first compound 0.00949 µM) 122% | viability, T/C (second compound 0.00316 µM, first compound 0.03 µM) 99.6% | viability, T/C (second compound 0.00316 µM, first compound 0.0949 µM) 87.7% | viability, T/C (second compound 0.00316 µM, first compound 0.3 µM) 59% | viability, T/C (second compound 0.01 µM, first compound 0.000949 µM) 109% | viability, T/C (second compound 0.01 µM, first compound 0.003 µM) 119% | viability, T/C (second compound 0.01 µM, first compound 0.00949 µM) 95.1% | viability, T/C (second compound 0.01 µM, first compound 0.03 µM) 93.9% | viability, T/C (second compound 0.01 µM, first compound 0.0949 µM) 79.4% | viability, T/C (second compound 0.01 µM, first compound 0.3 µM) 66.1% | viability, T/C (second compound 0.0316 µM, first compound 0.000949 µM) 99.2% | viability, T/C (second compound 0.0316 µM, first compound 0.003 µM) 109% | viability, T/C (second compound 0.0316 µM, first compound 0.00949 µM) 113% | viability, T/C (second compound 0.0316 µM, first compound 0.03 µM) 93.2% | viability, T/C (second compound 0.0316 µM, first compound 0.0949 µM) 87% | viability, T/C (second compound 0.0316 µM, first compound 0.3 µM) 61.7% | viability, T/C (second compound 0.1 µM, first compound 0.000949 µM) 115% | viability, T/C (second compound 0.1 µM, first compound 0.003 µM) 126% | viability, T/C (second compound 0.1 µM, first compound 0.00949 µM) 124% | viability, T/C (second compound 0.1 µM, first compound 0.03 µM) 85.8% | viability, T/C (second compound 0.1 µM, first compound 0.0949 µM) 97.8% | viability, T/C (second compound 0.1 µM, first compound 0.3 µM) 65.1% | viability, T/C (second compound 0.316 µM, first compound 0.000949 µM) 128% | viability, T/C (second compound 0.316 µM, first compound 0.003 µM) 114% | viability, T/C (second compound 0.316 µM, first compound 0.00949 µM) 123% | viability, T/C (second compound 0.316 µM, first compound 0.03 µM) 98.6% | viability, T/C (second compound 0.316 µM, first compound 0.0949 µM) 89.7% | viability, T/C (second compound 0.316 µM, first compound 0.3 µM) 64.2% | viability, T/C (second compound 1 µM, first compound 0.000949 µM) 135% | viability, T/C (second compound 1 µM, first compound 0.003 µM) 126% | viability, T/C (second compound 1 µM, first compound 0.00949 µM) 106% | viability, T/C (second compound 1 µM, first compound 0.03 µM) 94.2% | viability, T/C (second compound 1 µM, first compound 0.0949 µM) 95.2% | viability, T/C (second compound 1 µM, first compound 0.3 µM) 61.2%
> 300 nM: IC50 (second compound 0.00316 µM) | IC50 (second compound 0.01 µM) | IC50 (second compound 0.0316 µM) | IC50 (second compound 0.1 µM) | IC50 (second compound 0.316 µM) | IC50 (second compound 1 µM)

CCN1CCN(Cc2ccc(Nc3ncc(F)c(-c4cc(F)c5nc(C)n(C(C)C)c5c4)n3)nc2)CC1 + C=CC(=O)N1CCN(c2nc(OCC3CCCN3C)nc3c(F)c(-c4nc(N)cc(C)c4C(F)(F)F)c(Cl)cc23)C(C)C1
> 1000 nM: IC50 (second compound 0.00316 µM) | IC50 (second compound 0.01 µM) | IC50 (second compound 0.0316 µM) | IC50 (second compound 0.1 µM) | IC50 (second compound 0.316 µM) | IC50 (second compound 1 µM)
inactive: viability, T/C (second compound 0.00316 µM, first compound 0.00316 µM) 114% | viability, T/C (second compound 0.00316 µM, first compound 0.01 µM) 106% | viability, T/C (second compound 0.00316 µM, first compound 0.0316 µM) 102% | viability, T/C (second compound 0.00316 µM, first compound 0.1 µM) 125% | viability, T/C (second compound 0.00316 µM, first compound 0.316 µM) 131% | viability, T/C (second compound 0.00316 µM, first compound 1 µM) 134% | viability, T/C (second compound 0.01 µM, first compound 0.00316 µM) 104% | viability, T/C (second compound 0.01 µM, first compound 0.01 µM) 106% | viability, T/C (second compound 0.01 µM, first compound 0.0316 µM) 91.4% | viability, T/C (second compound 0.01 µM, first compound 0.1 µM) 112% | viability, T/C (second compound 0.01 µM, first compound 0.316 µM) 146% | viability, T/C (second compound 0.01 µM, first compound 1 µM) 131% | viability, T/C (second compound 0.0316 µM, first compound 0.00316 µM) 117% | viability, T/C (second compound 0.0316 µM, first compound 0.01 µM) 87.1% | viability, T/C (second compound 0.0316 µM, first compound 0.0316 µM) 100% | viability, T/C (second compound 0.0316 µM, first compound 0.1 µM) 121% | viability, T/C (second compound 0.0316 µM, first compound 0.316 µM) 141% | viability, T/C (second compound 0.0316 µM, first compound 1 µM) 132% | viability, T/C (second compound 0.1 µM, first compound 0.00316 µM) 97.1% | viability, T/C (second compound 0.1 µM, first compound 0.01 µM) 108% | viability, T/C (second compound 0.1 µM, first compound 0.0316 µM) 100% | viability, T/C (second compound 0.1 µM, first compound 0.1 µM) 104% | viability, T/C (second compound 0.1 µM, first compound 0.316 µM) 106% | viability, T/C (second compound 0.1 µM, first compound 1 µM) 135% | viability, T/C (second compound 0.316 µM, first compound 0.00316 µM) 85.5% | viability, T/C (second compound 0.316 µM, first compound 0.01 µM) 115% | viability, T/C (second compound 0.316 µM, first compound 0.0316 µM) 122% | viability, T/C (second compound 0.316 µM, first compound 0.1 µM) 99.8% | viability, T/C (second compound 0.316 µM, first compound 0.316 µM) 126% | viability, T/C (second compound 0.316 µM, first compound 1 µM) 126% | viability, T/C (second compound 1 µM, first compound 0.00316 µM) 109% | viability, T/C (second compound 1 µM, first compound 0.01 µM) 104% | viability, T/C (second compound 1 µM, first compound 0.0316 µM) 121% | viability, T/C (second compound 1 µM, first compound 0.1 µM) 113% | viability, T/C (second compound 1 µM, first compound 0.316 µM) 138% | viability, T/C (second compound 1 µM, first compound 1 µM) 134%
